Several values for one entry are separate records, joined by “and”; a condition that tells them apart may be missing. Identical values can stand only once.
Experiments:
skeletal muscle = details: five weeks after left coronary artery ligation; cited from earlier work
RyR2 = details: wildtype mice, 0.5 mg/kg/h for 28 days post-myocardial infarction
Text: Equivalent amounts of RyR2 are immunoprecipitated with an antibody against RyR2 (top blot).

PKA-phosphorylated RyR2 = molecular target: T1, PKA-phosphorylated RyR2 (Homo sapiens, UniProt Q92736); assay: FKBP12.6 rebinding assay: FKBP12.6 binding to PKA-phosphorylated RyR2 in cardiac SR; details: compound 0.5-1000 nM; Michaelis-Menten curve fitting
T1 construct: from tissue
Experimental: Samples are centrifuged at 95,000 g for 10 min and the pellets are washed three times in 0.2 ml imidazole buffer. The final pellets are pooled and resuspended in imidazole buffer (final concentration≈10 μg/μl). […] Samples then are centrifuged at 100,000 g for 10 minutes and pellets washed 3 times with imidizol buffer. […] Immunoblots are developed using an anti-FKBP antibody (1:3,000 dilution). […] The intracellular solution contains (in mM): CsCl, 60; CaCl2, 1; EGTA, 11; MgCl2, 1; K2ATP, 5; HEPES, 10; aspartic acid, 50; pH 7.4 (CsOH). Under these conditions, it is expected that the measured current was carried by Ba^2+ primarily through L-type calcium channels which is referred to as ICa,L. Drugs are applied by a local solution changer and reach the cell membrane within 1 s.
The FKBP12.6 rebinding assay described above is used to determine the amount of FKBP12.6 binding to PKA-phosphorylated RyR2 at various concentrations (0.5-1000 nM) of the compounds shown. EC50 values are calculated using Michaelis-Menten curve fitting.
The EC50 values are calculated using Michaelis-Menten curve fitting.

hERG = hERG (Homo sapiens, UniProt Q12809); assay: hERG current, PatchXpress 7000A automatic parallel patch clamp in hERG-transfected HEK 293 cells (Example 6); details: human, HEK 293 cells stably transfected with hERG cDNA
Experimental: (§1) HEK293 cells were transfected with a plasmid containing the hERG cDNA and a neomycin resistance gene. Stable transfectants were selected by culturing the cells in the presence of G418. The selection pressure was maintained by continued culture in the presence of G418. […] Cells for use in electrophysiology were cultured in 35 mm dishes.
(§2) Onset and steady state block of hERG current was measured using a pulse pattern with fixed amplitudes (conditioning prepulse: +20 mV for 2 seconds; test pulse: −50 mV for 2 seconds) repeated at 10 second intervals, from a holding potential of −80 mV. Peak tail current was measured during the 2 second step to −50 mV. A steady state was maintained for at least 30 seconds before applying the test compound or the positive control. Peak tail current was monitored until a new steady state was achieved. Test compound concentrations were applied cumulatively in ascending order without washout between applications.
(§3) Data acquisition and analysis was performed using the suite of pCLAMP (Vre. 8.2) programs (Axon Instruments, Union City, Calif.). Steady state was defined by the limiting constant rate of change with time (linear time dependence). The steady state before and after application of the test or control compounds was used to calculate the percentage of current inhibited at each concentration. […] Nonlinear squares fits were solved with the Solver add-in for Excel 2000 (Microsoft, Redmond, Wash.).
(§4) Multiple compounds of the invention were tested for their effects on hERG currents. The compounds tested were: ARM036-Na, ARM047, ARM048, ARM050, ARM057, ARM064, ARM074, ARM075, ARM076, ARM077, ARM101, ARM102, ARM103, ARM104, ARM106, ARM107 and ARM26. […] Electrophysiological recordings were made using the PatchXpress 7000 A (Molecular Devices) automatic parallel patch clamp system. […] The duration of exposure to each test concentration was 5 minutes.

hERG current = hERG current (Homo sapiens, UniProt Q12809); assay: as above; details: for Individual Data (% Inhibition): single cell
Experimental: as §1, §2, §3, §4

[1] = Individual Data (% Inhibition), single cell
[2] = Individual Data (% Inhibition), 10 μM, single cell
[3] = hERG current inhibition at the highest concentration tested, highest concentration tested (10 μM)

T1 sequence (Q92736 whole entry): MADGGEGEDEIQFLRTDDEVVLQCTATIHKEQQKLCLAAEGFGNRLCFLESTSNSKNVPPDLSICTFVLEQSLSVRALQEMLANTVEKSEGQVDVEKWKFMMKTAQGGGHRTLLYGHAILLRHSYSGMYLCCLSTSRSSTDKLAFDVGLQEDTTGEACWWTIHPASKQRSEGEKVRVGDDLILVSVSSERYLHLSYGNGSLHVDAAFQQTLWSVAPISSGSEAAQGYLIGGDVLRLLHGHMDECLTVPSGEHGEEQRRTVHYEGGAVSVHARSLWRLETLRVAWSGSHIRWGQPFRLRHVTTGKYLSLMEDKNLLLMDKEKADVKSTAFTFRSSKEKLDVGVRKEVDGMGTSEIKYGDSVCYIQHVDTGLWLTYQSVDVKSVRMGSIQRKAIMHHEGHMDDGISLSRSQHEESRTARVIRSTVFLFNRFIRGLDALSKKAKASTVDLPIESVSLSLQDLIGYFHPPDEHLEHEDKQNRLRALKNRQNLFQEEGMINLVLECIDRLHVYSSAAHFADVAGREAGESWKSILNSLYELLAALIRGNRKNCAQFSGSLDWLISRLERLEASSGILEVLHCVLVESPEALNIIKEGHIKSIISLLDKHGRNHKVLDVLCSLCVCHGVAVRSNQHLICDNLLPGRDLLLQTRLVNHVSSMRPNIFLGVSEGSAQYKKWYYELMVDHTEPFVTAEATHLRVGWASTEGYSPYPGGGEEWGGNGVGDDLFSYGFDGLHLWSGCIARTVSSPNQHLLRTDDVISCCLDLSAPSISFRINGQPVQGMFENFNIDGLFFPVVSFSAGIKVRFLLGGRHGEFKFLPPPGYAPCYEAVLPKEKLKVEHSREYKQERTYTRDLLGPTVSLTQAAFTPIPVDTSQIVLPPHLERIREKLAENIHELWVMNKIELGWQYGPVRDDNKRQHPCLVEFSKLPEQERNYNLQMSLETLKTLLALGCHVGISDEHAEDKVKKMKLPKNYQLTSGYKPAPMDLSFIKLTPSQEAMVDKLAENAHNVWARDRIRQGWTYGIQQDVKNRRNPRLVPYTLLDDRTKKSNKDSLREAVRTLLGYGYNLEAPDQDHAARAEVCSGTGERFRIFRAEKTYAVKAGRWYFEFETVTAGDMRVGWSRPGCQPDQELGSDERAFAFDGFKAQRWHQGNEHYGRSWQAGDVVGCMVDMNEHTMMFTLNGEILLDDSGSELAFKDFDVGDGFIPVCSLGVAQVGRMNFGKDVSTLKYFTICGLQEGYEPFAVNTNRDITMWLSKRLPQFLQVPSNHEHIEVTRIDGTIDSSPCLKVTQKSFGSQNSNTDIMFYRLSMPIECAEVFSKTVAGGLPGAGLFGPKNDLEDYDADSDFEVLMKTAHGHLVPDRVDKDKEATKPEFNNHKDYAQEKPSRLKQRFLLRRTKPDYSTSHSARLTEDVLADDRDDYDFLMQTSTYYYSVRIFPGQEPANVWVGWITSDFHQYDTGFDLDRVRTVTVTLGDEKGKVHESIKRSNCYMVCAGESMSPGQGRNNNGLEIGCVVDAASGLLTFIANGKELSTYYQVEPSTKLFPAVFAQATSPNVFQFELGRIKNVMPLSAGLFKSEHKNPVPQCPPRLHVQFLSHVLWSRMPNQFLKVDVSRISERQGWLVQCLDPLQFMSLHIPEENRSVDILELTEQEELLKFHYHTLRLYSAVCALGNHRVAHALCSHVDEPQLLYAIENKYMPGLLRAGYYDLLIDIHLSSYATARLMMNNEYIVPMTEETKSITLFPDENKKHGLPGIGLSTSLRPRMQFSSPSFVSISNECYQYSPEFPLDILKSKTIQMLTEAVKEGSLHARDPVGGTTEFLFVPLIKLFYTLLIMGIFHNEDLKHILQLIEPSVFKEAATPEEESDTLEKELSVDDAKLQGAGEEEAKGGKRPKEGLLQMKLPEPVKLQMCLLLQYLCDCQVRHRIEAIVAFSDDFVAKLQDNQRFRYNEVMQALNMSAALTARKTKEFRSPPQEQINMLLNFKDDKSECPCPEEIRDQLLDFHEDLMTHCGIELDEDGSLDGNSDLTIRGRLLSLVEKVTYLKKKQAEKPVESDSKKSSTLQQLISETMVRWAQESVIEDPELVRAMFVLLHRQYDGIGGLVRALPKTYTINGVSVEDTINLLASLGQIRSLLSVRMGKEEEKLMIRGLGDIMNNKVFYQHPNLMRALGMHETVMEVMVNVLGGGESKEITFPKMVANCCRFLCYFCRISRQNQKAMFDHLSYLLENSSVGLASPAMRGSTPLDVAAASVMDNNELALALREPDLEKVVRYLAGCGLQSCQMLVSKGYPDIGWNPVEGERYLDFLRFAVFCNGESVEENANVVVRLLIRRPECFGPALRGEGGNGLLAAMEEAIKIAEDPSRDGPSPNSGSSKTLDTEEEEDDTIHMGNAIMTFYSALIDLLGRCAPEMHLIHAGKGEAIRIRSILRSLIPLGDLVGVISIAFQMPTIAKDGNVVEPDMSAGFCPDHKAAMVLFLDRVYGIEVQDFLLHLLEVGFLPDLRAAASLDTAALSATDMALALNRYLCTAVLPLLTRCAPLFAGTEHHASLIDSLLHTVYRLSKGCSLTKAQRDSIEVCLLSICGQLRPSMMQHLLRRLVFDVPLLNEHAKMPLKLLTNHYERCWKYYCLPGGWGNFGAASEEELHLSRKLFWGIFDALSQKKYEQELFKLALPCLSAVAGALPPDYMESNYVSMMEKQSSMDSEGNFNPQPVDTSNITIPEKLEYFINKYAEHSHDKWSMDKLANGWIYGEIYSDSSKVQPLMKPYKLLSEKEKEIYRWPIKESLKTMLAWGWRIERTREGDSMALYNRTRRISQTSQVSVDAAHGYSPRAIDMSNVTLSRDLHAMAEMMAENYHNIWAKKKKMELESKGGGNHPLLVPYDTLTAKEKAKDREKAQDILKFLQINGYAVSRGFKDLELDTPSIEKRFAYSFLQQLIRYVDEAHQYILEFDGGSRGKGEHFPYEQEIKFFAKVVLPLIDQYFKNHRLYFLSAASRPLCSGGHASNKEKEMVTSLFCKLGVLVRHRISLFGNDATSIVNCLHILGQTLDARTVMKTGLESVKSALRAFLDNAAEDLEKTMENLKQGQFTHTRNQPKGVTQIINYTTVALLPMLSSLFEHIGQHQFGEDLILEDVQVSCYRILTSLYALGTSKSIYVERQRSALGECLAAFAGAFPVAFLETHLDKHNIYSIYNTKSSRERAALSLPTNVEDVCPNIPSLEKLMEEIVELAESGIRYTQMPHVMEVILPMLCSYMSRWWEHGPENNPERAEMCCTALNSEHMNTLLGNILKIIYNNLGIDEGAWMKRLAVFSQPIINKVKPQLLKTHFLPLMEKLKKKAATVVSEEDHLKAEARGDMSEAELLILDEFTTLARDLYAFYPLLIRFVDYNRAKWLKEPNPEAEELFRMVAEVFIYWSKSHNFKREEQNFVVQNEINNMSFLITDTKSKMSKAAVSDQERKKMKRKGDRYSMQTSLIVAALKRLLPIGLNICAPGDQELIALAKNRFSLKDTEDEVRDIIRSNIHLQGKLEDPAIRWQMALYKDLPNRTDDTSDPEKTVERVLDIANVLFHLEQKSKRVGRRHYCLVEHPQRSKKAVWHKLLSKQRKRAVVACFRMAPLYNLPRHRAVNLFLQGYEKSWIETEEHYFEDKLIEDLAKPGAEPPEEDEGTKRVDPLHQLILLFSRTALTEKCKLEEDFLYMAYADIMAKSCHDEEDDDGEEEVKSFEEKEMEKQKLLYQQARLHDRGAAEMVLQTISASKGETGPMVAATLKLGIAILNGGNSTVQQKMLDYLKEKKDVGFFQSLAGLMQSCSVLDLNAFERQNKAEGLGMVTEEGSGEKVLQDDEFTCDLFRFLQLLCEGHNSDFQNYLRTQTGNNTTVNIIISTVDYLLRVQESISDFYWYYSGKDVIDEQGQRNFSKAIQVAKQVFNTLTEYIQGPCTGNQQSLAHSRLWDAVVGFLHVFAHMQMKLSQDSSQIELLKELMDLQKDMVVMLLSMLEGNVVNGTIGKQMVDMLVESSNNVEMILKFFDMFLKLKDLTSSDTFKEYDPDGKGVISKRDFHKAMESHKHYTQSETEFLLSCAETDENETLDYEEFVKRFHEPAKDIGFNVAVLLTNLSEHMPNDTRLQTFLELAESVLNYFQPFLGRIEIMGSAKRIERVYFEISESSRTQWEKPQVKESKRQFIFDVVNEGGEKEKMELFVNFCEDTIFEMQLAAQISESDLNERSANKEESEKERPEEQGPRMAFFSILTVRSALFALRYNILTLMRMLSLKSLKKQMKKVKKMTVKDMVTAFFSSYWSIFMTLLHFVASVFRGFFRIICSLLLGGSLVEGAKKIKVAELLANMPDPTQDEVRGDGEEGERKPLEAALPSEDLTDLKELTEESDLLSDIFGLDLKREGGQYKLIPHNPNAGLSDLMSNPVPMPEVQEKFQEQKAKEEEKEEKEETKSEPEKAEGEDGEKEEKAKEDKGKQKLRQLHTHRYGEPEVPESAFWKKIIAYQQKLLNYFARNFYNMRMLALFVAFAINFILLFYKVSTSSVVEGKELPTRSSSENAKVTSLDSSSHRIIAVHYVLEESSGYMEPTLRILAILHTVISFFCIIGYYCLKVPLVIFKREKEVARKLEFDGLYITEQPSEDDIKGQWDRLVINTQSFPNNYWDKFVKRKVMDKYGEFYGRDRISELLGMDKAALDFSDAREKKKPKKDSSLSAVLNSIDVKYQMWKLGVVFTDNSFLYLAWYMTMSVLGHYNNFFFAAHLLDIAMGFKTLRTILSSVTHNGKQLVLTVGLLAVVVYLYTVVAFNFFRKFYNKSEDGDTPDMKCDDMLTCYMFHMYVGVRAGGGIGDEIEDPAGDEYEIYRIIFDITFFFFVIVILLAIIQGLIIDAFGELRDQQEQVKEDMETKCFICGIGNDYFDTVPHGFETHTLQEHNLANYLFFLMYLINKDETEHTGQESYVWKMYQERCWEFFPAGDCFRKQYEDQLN
T1 sequence (P68106 whole entry partner): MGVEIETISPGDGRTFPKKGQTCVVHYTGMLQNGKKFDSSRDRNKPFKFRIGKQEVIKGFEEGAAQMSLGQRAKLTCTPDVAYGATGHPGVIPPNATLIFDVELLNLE

Row | Compound | EC50 (PKA-phosphorylated RyR2) | inhibition at 5 min, 0.01 µM (hERG; [1]) | inhibition at 5 min, 0.1 µM (hERG; [1]) | inhibition at 5 min, 1 µM (hERG; [1]) | inhibition at 5 min, 10 µM (hERG; [2]) | inhibition at 5 min, 0.01 µM (hERG; Mean % hERG Inhibition) | inhibition at 5 min, 0.1 µM (hERG; Mean % hERG Inhibition) | inhibition at 5 min, 1 µM (hERG; Mean % hERG Inhibition) | inhibition at 5 min, 10 µM (hERG; Mean % hERG Inhibition, 10 μM) | inhibition at 5 min, 10 µM (hERG; [3]) | also measured
1 | COc1ccc2c(c1)CN(C(=O)CCN1CCC(Cc3ccccc3)CC1)CCS2.Cl [JTV-519, 4-[3-(4-benzylpiperidin-1-yl)propionyl]-7-methoxy-2,3,4,5-tetrahydro-1,4-benzothiazepine monohydrochloride] |  |  |  |  |  |  |  |  |  |  | resting heart rate or other ECG parameters (FKBP12.6+/− mice; 0.5 mg/kg/h for 7 days, osmotic mini-pump): no effect; cardiac arrhythmias and sudden cardiac death (FKBP12.6+/− mice; plasma level 1 μM): prevent; skeletal muscle function (skeletal muscle): able to improve skeletal muscle function; PKA phosphorylation of RyR2 at Ser-2808 (RyR2): reduces
2 | CCN(CC)C(=O)N1CCSc2ccccc2C1 [S75] | 150 nM | 1.7% | 2.6% | 3.7% | 14.7% | 1.4% | 3.7% | 3.9% | 16% | < 50% | Individual Data (% Inhibition) (hERG current; 0.01 μM, listed as ARM075, 0.01 µM): 1.1%; Individual Data (% Inhibition) (hERG current; 0.1 μM, listed as ARM075, 0.1 µM): 4.8%; Individual Data (% Inhibition) (hERG current; 1 μM, listed as ARM075, 1 µM): 4.1%; Individual Data (% Inhibition) (hERG current; 10 μM, listed as ARM075, 10 µM): 17.2%

The next lines start with results.

Row | EC50 (PKA-phosphorylated RyR2) | Compound | inhibition at 5 min, 0.01 µM (hERG; [1]) | inhibition at 5 min, 0.1 µM (hERG; [1]) | inhibition at 5 min, 1 µM (hERG; [1]) | inhibition at 5 min, 10 µM (hERG; [2]) | inhibition at 5 min, 0.01 µM (hERG; Mean % hERG Inhibition) | inhibition at 5 min, 0.1 µM (hERG; Mean % hERG Inhibition) | inhibition at 5 min, 1 µM (hERG; Mean % hERG Inhibition) | inhibition at 5 min, 10 µM (hERG; Mean % hERG Inhibition, 10 μM) | inhibition at 5 min, 10 µM (hERG; [3]) | also measured
3 | 40 nM | COc1ccc2c(c1)CNCCS2 [S26] | 9.1% | 12.3% | 11.3% | 56.4% | 8.9% | 10.5% | 12.3% | 58.3% |  | IC50 (hERG current): 7030 nM; Individual Data (% Inhibition) (hERG current; 0.01 μM): 8.7%; Individual Data (% Inhibition) (hERG current; 0.1 μM): 8.6%; Individual Data (% Inhibition) (hERG current; 1 μM): 13.2%; Individual Data (% Inhibition) (hERG current; 10 μM): 60.1%
4 | 100 nM | CCN(CC)C(=O)N1CCSc2ccc(OC)cc2C1 [S48] |  | 4.2% | 4.7% | 15.2% | 1.3% | 3.6% | 4.1% | 14% | < 50% | Individual Data (% Inhibition) (hERG current; 0.01 μM, listed as ARM048, 0.01 µM): 0.5% and 2.0%; Individual Data (% Inhibition) (hERG current; 0.1 μM, listed as ARM048, 0.1 µM): 2.9%; Individual Data (% Inhibition) (hERG current; 1 μM, listed as ARM048, 1 µM): 3.5%; Individual Data (% Inhibition) (hERG current; 10 μM, listed as ARM048, 10 µM): 12.8%
5 | 44 nM | COc1ccc2c(c1)CN(C(=O)N1CCNCC1)CCS2 [S64] |  | 9.9% |  | 32% | 0.2% | 9% | 9.6% | 30.3% | < 50% | Individual Data (% Inhibition) (hERG current; 0.01 μM, listed as ARM064, 0.01 µM): −0.6% and 1.0%; Individual Data (% Inhibition) (hERG current; 0.1 μM, listed as ARM064, 0.1 µM): 8.1%; Individual Data (% Inhibition) (hERG current; 1 μM, listed as ARM064, 1 µM): 13.2% and 6.0%; Individual Data (% Inhibition) (hERG current; 10 μM, listed as ARM064, 10 µM): 28.5%

From patent publication US8710045B2, “Agents for preventing and treating disorders involving modulation of the ryanodine receptors” (The Trustees of Columbia University in the City of New York, priority 2004, dated 2014)
